In this experiment the target is Beta-secretase 1 (Homo sapiens, UniProt P56817). In words: In Vitro BACE1 Activity Assay. The conditions noted are these: pH 4.5; 22 °C. As for the experimental part: The assay was performed using a 96-well format on a HPLC equipped with four 96-well plate holders. Test compounds were preincubated with enzymes for 30 min, followed by the addition of substrate. The solution was then incubated for an additional 30 min at room temperature. After the reaction was terminated, the solution was filtered, and the filtrate was subjected to HPLC analysis. The substrate and product were monitored by fluorescence detection (340nm excitation, 440 nm emission).
Chain of Beta-secretase 1 (P56817 whole entry): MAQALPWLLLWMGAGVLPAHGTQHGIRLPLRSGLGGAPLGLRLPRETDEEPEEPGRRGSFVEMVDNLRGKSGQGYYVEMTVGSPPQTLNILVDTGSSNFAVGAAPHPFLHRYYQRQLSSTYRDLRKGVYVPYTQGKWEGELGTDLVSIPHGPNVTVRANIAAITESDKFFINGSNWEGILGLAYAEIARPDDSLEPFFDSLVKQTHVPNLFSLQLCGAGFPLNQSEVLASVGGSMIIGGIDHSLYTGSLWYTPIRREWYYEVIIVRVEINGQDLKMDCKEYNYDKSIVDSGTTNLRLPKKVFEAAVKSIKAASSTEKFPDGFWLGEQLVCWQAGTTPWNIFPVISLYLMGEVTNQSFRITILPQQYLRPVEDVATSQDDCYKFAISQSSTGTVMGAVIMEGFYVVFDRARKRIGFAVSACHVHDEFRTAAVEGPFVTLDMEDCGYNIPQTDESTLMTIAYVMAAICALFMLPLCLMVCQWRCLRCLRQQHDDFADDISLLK

Usually IC50 stands for the concentration needed to halve the response being measured. A low value points to higher potency. `CC(C)CNC(=O)[C@H](C)NC[C@H](Cc1ccccc1)NC(=O)c1cc(/C=C\[C@H]2C[C@@H]2C)cc(N(C)S(C)(=O)=O)c1` [N-[(1S)-1-benzyl-2-({(1S)-1-methyl-2-[(2-methylpropyl)amino]-2-oxoethyl}amino)ethyl]-3-{(Z)-2-[(1S,2S)-2-methylcyclopropyl]ethenyl}-5-[methyl(methylsulfonyl)amino]benzamide] gave an IC50 of 0.02 µM.
Consider `C[C@H](NC[C@H](Cc1ccccc1)NC(=O)c1cc(C(=O)N[C@H](C)c2ccc(F)cc2)cc(N(C)S(C)(=O)=O)c1)C(=O)N1CCCC1C(=O)O` (stereo partly drawn) [1-[(2S)-2-{[(2S)-2-[(3-{[(1R)-1-(4-fluorophenyl)ethyl]carbamoyl}-5-(N-methylmethanesulfonamido)phenyl)formamido]-3-phenylpropyl]amino}propanoyl]pyrrolidine-2-carboxylic acid], for which the IC50 amounted to 17.2 µM.

The values above are taken from BindingDB's records for doi:10.1016/j.bmcl.2006.04.076 (Merck Research Laboratories, 2006).
